Where “and” joins values, the source holds several entries; their conditions need not be identical. Identical values can stand only once. Each block holds one molecule with its values, some of them ahead of it.
Tests used:
healthy human subjects = assay: Clinical single-dose escalation study, safety and tolerability
[1] = Stability of dilute aqueous solution as a function of pH (absorbance at 303 nm); assay type: physicochemical
[2] = Clinical single-dose escalation study, pharmacokinetics of oral gallium maltolate (serum and urine gallium); conditions: human; for FAe: cumulative urinary excretion as fraction of administered dose: 72h; for F (V=29.5 L): from V/F
[3] = human, in vivo, po
Solubility in water = assay type: physicochemical; conditions: 25 C; listed as GaM
[4] = Dog bioavailability study (serum gallium); conditions: healthy young beagle dogs, intraduodenal or oral
[5] = dog, in vivo, 1.5 mg/kg
[6] = design: method as in earlier work; conditions: human cancer patients, single oral dose 800 mg (317 mg Ga); cited from earlier work
[7] = Pharmacokinetics of single oral dose of gallium chloride in cancer patients (data of Collery et al.); assay type: in vivo, human; conditions: data of ref 12
[8] = single oral dose 100 mg [15.7 mg Ga]
[9] = single oral dose 200 mg [31.3 mg Ga]
[10] = single oral dose 300 mg [47.0 mg Ga]
[11] = single oral dose 500 mg [78.4 mg Ga]

Structure (SMILES): Cc1occc(=O)c1[O-].Cc1occc(=O)c1[O-].Cc1occc(=O)c1[O-].[Ga+3] [gallium maltolate, tris(3-hydroxy-2-methyl-4H-pyran-4-onato)gallium]
Change in renal function (serum creatinine clearance, serum urea, BUN clearance, urinary microglobulin, urinalysis) (healthy human subjects; healthy human subjects, oral): none of the subjects who took oral GaM showed any change in renal function
Serious treatment-related adverse events (healthy human subjects; healthy human subjects, single oral doses 100-500 mg): no reports of serious treatment-related adverse events
Subjects reporting possible drug-related adverse events (healthy human subjects; healthy human subjects, single oral doses 100-500 mg, mild headache (100 mg), moderate coughs (200 mg)): Three of the twelve subjects
Tolerability (healthy human subjects; healthy human volunteers, single oral doses of 100, 200, 300 and 500 mg): very well tolerated
Dissociation in dilute aqueous solution ([1]; 2.5 x 10^-5 M, pH 5.5-8.0): little dissociation
Gallium maltolate complex undissociated ([1]; dilute aqueous solution (2.5 x 10^-5 M), pH approximately 5.5 to 8): at least 98%
Dose dependence of absorption ([2]; oral, dosage range 100-500 mg): dose proportional
Urinary Ga excretion, of the administered dose ([2]; oral, over 72h): approximately 2%
Ae: cumulative urinary excretion of gallium in 72h [2, 8]: 0.35(0.14) mg
Lag time [2, 8]: 0.32(0.05) h
FAe: cumulative urinary excretion as fraction of administered dose [2, 8]: 0.022(0.001)
F (V=29.5 L) [2, 8]: 0.28
Ae: cumulative urinary excretion of gallium in 72h [2, 9]: 0.66(0.28) mg
Lag time [2, 9]: 0.42(0.04) h
FAe: cumulative urinary excretion as fraction of administered dose [2, 9]: 0.021(0.001)
F (V=29.5 L) [2, 9]: 0.35
Ae: cumulative urinary excretion of gallium in 72h [2, 10]: 1.11(0.08) mg
Lag time [2, 10]: 0.24(0.06) h
FAe: cumulative urinary excretion as fraction of administered dose [2, 10]: 0.023(0.000)
F (V=29.5 L) [2, 10]: 0.40
Ae: cumulative urinary excretion of gallium in 72h [2, 11]: 1.37(0.52) mg
Lag time [2, 11]: 0.20(0.08) h
FAe: cumulative urinary excretion as fraction of administered dose [2, 11]: 0.018(0.001)
F (V=29.5 L) [2, 11]: 0.25
Central compartment excretion half life ([2]; single oral doses 100-500 mg): 17 to 21 h
Estimated oral gallium bioavailability ([2]; single oral doses 100-500 mg, comparison with published i.v. gallium nitrate data): 25-57%
F, range over doses (from V/F with V 29.5 L) [3]: 0.25-0.40
Solubility in water (Solubility in water): 10.7 ± 0.9 mg/mL and 24(2) mM
Absorption of Ga into blood plasma relative to intraduodenal Ga nitrate [4]: several times higher

Structure (SMILES): O=[N+]([O-])[O-].O=[N+]([O-])[O-].O=[N+]([O-])[O-].[Ga+3] [Ga nitrate, gallium nitrate]
Cmax [5]: 0.31 (0.02) lg/mL
K01 half life [5]: 0.8(0.2) h
Tmax [5]: 3.1 (0.4) h
beta half life [5]: 9.9(2.4) h

Gallium bioavailability using the estimated value for V/F ([7]; human cancer patients, single oral dose 800 mg (317 mg Ga)): approximately 0.010
Estimated oral bioavailability ([7]; human, oral): ≤ 2%
Structure (SMILES): [Cl][Ga]([Cl])[Cl] [GaCI3, gallium chloride]
Estimated V/F [6]: 2862(297) L
